Like-named read-outs stand apart in the source and are kept apart here.
Columns and labels:
MCF7 = assay: SRB cell proliferation assay, MCF7; assay type: cell-based, human
Procedure: (§1) In vitro anticancer study: The in vitro anti-proliferative tests were carried out as described previously, using aliquots of the cell lines used therein. Briefly, HeLa, MDA-MB-231 and MDA-MB-468, MCF7, and 184B5 and MCF 10A cell lines were purchased from ATCC. The identity of the cell lines presented in this study were verified by short tandem repeat profiling by Genetica DNA Laboratories (www.celllineauthentication.com) (April 8, 2015). MCF10A was grown in DMEM F12 medium supplemented with 0.02 μg/mL epidermal growth factor, 10% FBS, 10 μg/mL insulin and […] hydrocortisone. MDA-MB-468 were grown in DMEM supplemented with 10% FBS and antibiotics cocktail (100 μg/mL streptomycin, 100 units/mL penicillin and 250 ng/mL amphotericin B). SRB cell proliferation assays were carried out as previously described, with some minor modifications. The concentration range for all tested cell lines were from 100–0.39 μg/mL for extracts and 100–0.39 μM for pure compounds. […] All experiments were carried out at least twice.

MDA-MB-231 cells = assay: Annexin V staining / IncuCyte apoptosis and proliferation assay; assay type: cell-based, human
Procedure: Annexin V staining: Cell death mechanism and cell proliferation assays were analysed using the IncuCyte Apoptosis Assay method using the Annexin V Green reagent (Essen Biosciences, Ann Arbor, MI, USA) and the IncuCyte S3 and IncuCyte ZOOM software (Version 2018B, Bohemia, NY, USA) according to supplier’s protocol. Statistical analysis was carried out in Graph Pad Prism 5. All experiments were carried out at least twice.

[1] = tested on: Plasmodium falciparum 3D7 and W2 strains; assay: In vitro anti-plasmodial assay, both strains; assay type: cell-based
Procedure: (§2) Parasites were grown in A-positive human blood (Etablissement Français du Sang, Marseille, France) under controlled atmospheric conditions that consisted of 10% O2, 5% CO2, and 85% N2 at 37 °C with a humidity of 95%.
(§3) In vitro anti-plasmodial assay: The two P. falciparum strains 3D7 and W2 were synchronized twice with sorbitol before use. The clonality of these strains was verified both in our laboratory and in an independent laboratory from the Worldwide Anti-malarial Resistance Network (WWARN) by PCR genotyping of the polymorphic genetic markers msp1 and msp2 and microsatellite loci. The compounds were re-suspended in methanol or DMSO 5% (v/v) and then diluted in methanol to obtain final concentrations ranging from 0.008 to 500 μg/mL (final concentration of 0.5% of methanol or DMSO). […] The plates were incubated for 72 h at 37 °C in controlled atmospheric conditions 5% CO2, 10% O2, and […]. After thawing the plates, haemolysed cultures were homogenized by vortexing the plates. Both the success of the drug susceptibility assay and the appropriate volume of haemolysed culture to use for each assay were determined for each clinical isolate during a preliminary HRP2 ELISA. Both the pre-test and subsequent ELISA assays were performed using a commercial kit (Malaria Ag Celisa, ref KM2159, Cellabs PTY LTD, Brookvale, Australia) according to the manufacturer’s recommendation. The optical density (OD) of each sample was measured with a spectrophotometer (Safire 2, Tecan, Lyon, France). […] The anti-plasmodial in vitro assay was performed five times for each product. The IC50 values represented the mean value calculated from five experiments. According to Hout, a selectivity index (SI) was based on the ratio between anti-parasitic and cytotoxic activities. In the case of our study, a SI was calculated between non-tumorigenic cell line 184B5 and parasites 3D7 or W2 and/or MCF10A and these two parasites.

[2] = tested on: chloroquine-resistant W2 P. falciparum strain; assay: In vitro anti-plasmodial assay (HRP2 ELISA), W2; assay type: cell-based, Plasmodium falciparum; settings: for IC50: 72 h, HRP2 ELISA, mean of five experiments, read-out: IC50 (μM ± SD) W2
Procedure: as §2, §3

HeLa = assay: SRB cell proliferation assay, HeLa; assay type: cell-based, human; settings: for IC50: 72 h, Table 2A, SRB, read-out: IC50 (μM ± SD) HeLa
Procedure: as §1

184B5 = assay: SRB cell proliferation assay, 184B5 non-cancer cells; assay type: cell-based, human; settings: for IC50: Homo sapiens, 184B5, read-out: IC50 (μM ± SD) 184B5
Procedure: as §1

[3] = tested on: HeLa, MDA-MB231, MDA-MB-468, MCF7, 184B5 and MCF10A cell lines; assay: SRB cell proliferation assay, whole panel of cell lines; assay type: cell-based, human; settings: Homo sapiens; cancer and non-cancer cell lines; read-out: IC50 values, range over the cell lines examined
Procedure: as §1

[4] = tested on: Aurora A, B, and C phosphorylation in HeLa cells arrested in mitosis; assay: Western blot, autophosphorylation of Aurora kinases; assay type: cell-based, human; settings: 20 μM, 12 h
Procedure: (§4) Western Blot analysis: Western blotting was carried out as described previously. The primary antibodies used were from Cell Signaling (Histone H3; p-Histone H3^S10 and Phospho-Aurora A (Thr288)/Aurora B (Thr232)/Aurora C (Thr198)) and used at recommended dilution. For cell synchronization at prometaphase, HeLa cells were treated with 50 ng/mL nocodazole (NZ) (Santa Cruz Biotechnology) for 12 h. All experiments were carried out at least twice.

HeLa cells = assay: Cell cycle analysis, propidium iodide flow cytometry; assay type: cell-based, human; settings: asynchronous HeLa, 10 μM, 12–72 h
Procedure: Cell cycle analysis: Propidium iodide staining and flow cytometry analysis were carried out as described previously with minor modifications. Briefly, 250,000 HeLa cells (50,000 cells/mL) were treated with 10 μM oxostephanine (1) and harvested at the indicated time points. All experiments were carried out at least twice.

MCF 10A = assay: SRB cell proliferation assay, MCF10A non-cancer cells; assay type: cell-based; settings: Homo sapiens, read-out: IC50 (μM ± SD) MCF 10A
Procedure: as §1

[5] = tested on: phosphorylation of histone H3 on Ser-10 in HeLa cells; assay: Western blot, histone H3 Ser-10 phosphorylation; assay type: cell-based, human; settings: 12 h
Procedure: as §4

What does the source list for `COc1cccc2c1C(=O)c1nccc3cc4c(c-2c13)OCO4` [Oxostephanine 1, oxostephanine]?
IC50 (MCF7; Homo sapiens, MCF7, Table 2A, SRB, 72 h, read-out: IC50 (μM ± SD) MCF7): 4.35 ± 1.2 µM; Selectivity index (SI) 184B5 versus MCF7 (MCF7; Table 2B, non-cancer 184B5 vs cancer MCF7): 0.38; Selectivity index (SI) MCF10A versus MCF7 (MCF7; Table 2B, non-cancer MCF10A vs cancer MCF7): 0.57; Time to inhibition of proliferation (MDA-MB-231 cells; MDA-MB-231): ≤ 12 h; Apoptotic effect compared to camptothecin (MDA-MB-231 cells; MDA-MB-231, 10 μM, 1-way ANOVA p < 0.05): much stronger apoptotic effect; Time to start of apoptosis (Annexin V) (MDA-MB-231 cells; MDA-MB-231, post-treatment): ≤ 16 h; Anti-plasmodial activity against both 3D7 and W2 (in words) [1]: not active; IC50 [2]: 216 ± 31.5 µM; IC50 ([2]; Plasmodium falciparum, W2, 72 h): 216 to 226 µM; SI W2 184B5 ([2]; Table 3, selectivity index between 184B5 and parasites W2): 0.007; IC50 (HeLa; Homo sapiens, HeLa): 1.73 µM; IC50 (HeLa): 1.76 ± 0.2 µM; Selectivity index (SI) 184B5 versus HeLa (HeLa; Table 2B, non-cancer 184B5 vs cancer HeLa): 0.94; Selectivity index (SI) MCF10A versus HeLa (HeLa; Table 2B, non-cancer MCF10A vs cancer HeLa): 1.40; Increase in effectiveness compared with stephanine (3), HeLa (HeLa; ratio of IC50): 2 fold; IC50 (184B5; Table 2A, SRB, 72 h): 1.66 ± 0.56 µM; IC50 (184B5; Table 3, non-cancer cell line): 1.66 ± 0.56 µM; Increase in effectiveness compared with stephanine (3), 184B5 (184B5; ratio of IC50): ~4 fold; IC50 [3]: 1.66 to 4.35 µM; Autophosphorylation of Aurora kinases A, B and C [4]: inhibits the auto-phosphorylation of all three Aurora kinases; Cell cycle distribution (HeLa cells): induces a transient G2/M arrest and apoptotic cell death; IC50 (MCF 10A; Table 2A, SRB, 72 h): 2.49 ± 0.11 µM; IC50 (MCF 10A; Table 3, non-cancer cell line): 2.49 ± 0.11 µM; Phosphorylation of histone H3 on Ser-10 [5]: dramatically downregulated
